The text below walks through data of patent US20260048046A1, “METHOD FOR IMPROVING GROWTH PERFORMANCE IN FEEDLOT CATTLE” (Elanco US Inc., priority 2022, published 2026).

This assay relates to beef cattle. The assay is described as follows: 91-d study: growth performance of beef cattle fed lubabegron. Format: in vivo. The note with it: for ADG / DMI / G:F / Unshrunk final BW: 91-d treatment, LS mean. The source says: A randomized complete block design was used to evaluate the effect of lubabegron (LUB) on performance over a 91-d period using 336 beef cattle (BW=453±34.5 kg) housed in cattle pen enclosures (CPE). Four LUB treatments were included in the study based on dose: 0.0 (control or CON), 1.38, 5.5, and 22.0 (mg·kg^−1 of DM). Because there was a limited number of CPE (n=8), three sequential cycles (blocks) were required to generate 6 replicates of each dose×sex combination. As such, 112 cattle (56 steers and 56 heifers) were housed concurrently within each cycle across the eight CPE (14 cattle/CPE), with each dose×sex combination being represented by a single CPE/cycle. To assure different frame sizes of cattle were represented, cattle in cycles one and three were large-frame Continental crossbreds, whereas cattle in cycle 2 were medium-frame British crossbreds.
Treatment administration for the three cycles occurred from April through July, August through November, and December through March of 2014 and 2015, respectively. Four weeks before beginning treatments for each cycle (day −28), up to 145 cattle were sourced from a common origin and transported to the study site at the University of California-Davis to be group-housed in single-sexed outdoor pens. The presence of growth-promoting implants was assessed, and any preexisting implants were excised before shipment to the study site to ensure they had been implant-free for a minimum of 28 d before treatments began on day 0. No additional implants were used in these cattle, and they were considered nonimplanted.
On day −8, cattle were screened for abnormal health conditions by a veterinarian and ranked by BW to identify the 56 eligible cattle within each sex that provided the narrowest weight range. The following day (day −7), the 56 cattle selected for study enrollment. within each sex were grouped into sets of four consecutively weight-ranked cattle. Cattle were then randomly allocated to their respective treatment within each weight group and transferred into the CPE. The CPE were randomly assigned to sex and dose treatment before each cycle, and all study personnel were blinded to treatments throughout the duration of the study. All cattle were fed the negative control basal finishing diet (Table 1) for 1 week (days −7 to −1) after being placed into the CPE to allow for acclimation before beginning treatments.
Treatments began on day 0 and cattle in each CPE received their respective treatment for 91 d. Emission measurements began at 0800 hours on day 0 and ended at 0500 hours on day 91, immediately preceding cattle removal from the CPE for final BW measurements and transportation to the commercial slaughter facility.
Cattle had been fed a concentrate-based diet in a commercial setting before arrival at the study site on day −28, at which point they were provided ad libitum access to water and re-acclimated to a concentrate-based diet using a step-up program involving two intermediate diets based on increasing concentrate levels (˜60% and 70%, respectively) and varying proportions of alfalfa and wheat hay. On day −14, cattle were transitioned onto a finishing diet (Table 1) formulated to meet, or exceed, the minimum nutrient requirements for growing beef cattle (NRC, 2000) that was then fed for the remainder of the study. A nonmedicated supplement (i.e., type B feed with a ground corn carrier) was included as 2.5% of the diet DM during acclimation for all cattle from day −14 until the beginning of treatment administration. On day 0, one of four type B supplements were added to the basal diet to provide either 0.0 (CON), 1.38, 5.5, or 22.0 mg·kg^−1 (DM basis) LUB in a type C (i.e., final feed) medicated feed. All type C feeds containing the appropriate concentrations of LUB or CON were prepared at the study site by adding the same proportions of Type B supplement, water, and basal ration in a rotary mixer wagon (Roto-Mix Forage Express, Dodge City, KS). […]

Regarding `CC(C)(Cc1ccc(Oc2ncccc2C#N)cc1)NC[C@H](O)COc1ccccc1-c1cccs1` [LUB, 2-{4-[2-({(2S)-2-Hydroxy-3-[2-(2-thienyl)phenoxy]propyl}amino)-2-methylpropyl]phenoxy}nicotinonitrile], where the note is “91 d, all LUB doses vs CON, P=0.257”, the “Effect of LUB treatment on final BW” value is recorded as “not altered”. Besides, the “Effect of LUB on DMI” value (91 d, all LUB doses vs CON, P=0.585) is “no effect”. Moreover, under “LUB 1.38 mg·kg^−1, 91 d”, the “ADG increase vs. CON” value was found to be 11.8% and the “G:F increase compared with CON” value was found to be 8.3%. Also, for the setting “LUB 1.38 mg·kg^−1 DM”, the ADG is given as 1.42 kg, the DMI is listed as 9.2 kg, the “G:F” value is reported as 0.156 kg:kg and the “Unshrunk final BW” value came out at 583 kg. For the setting “LUB 5.5 mg·kg^−1, 91 d”, the “ADG increase vs. CON” value turned out to be 9.4% and the “G:F increase compared with CON” value was determined as 9.7%. Where the note is “LUB 5.5 mg·kg^−1 DM”, the ADG came to 1.35 kg, the DMI came to 8.8 kg, the “G:F” value is given as 0.158 kg:kg and the “Unshrunk final BW” value was 582 kg. Where the note is “LUB 22.0 mg·kg^−1, 91 d”, the “ADG increase vs. CON” value was determined as 12.6% and the “G:F increase compared with CON” value is 13.2%. For the setting “LUB 22.0 mg·kg^−1 DM”, the ADG is on record as 1.43 kg, the DMI came out at 8.8 kg, the “G:F” value was 0.163 kg:kg and the “Unshrunk final BW” value came out at 582 kg.
